Results: patent US20240319193A1, “CIRCULATING TUMOR CELL DIAGNOSTICS FOR BIOMARKERS PREDICTIVE OF RESISTANCE TO ANDROGEN RECEPTOR (AR) TARGETED THERAPIES” (Epic Sciences, Inc., priority 2014, published 2024)

Tested on: progressive mCRPC patients
Assay: Response to AR targeted therapy by baseline CTC AR expression (Epic CTC), Example 1
Format: in vivo, human
Conditions: pooled AA+P or E patients; for patients with high AR who responded: high baseline AR expression on CTCs, N = 7; for patients with low AR who had a PSA decline and stable radiographic disease: low baseline AR expression on CTCs, N = 14, median follow-up 12 wks
Description: 48 samples from 21 unique progressive mCRPC patients treated with androgen receptor targeted (AR tx) therapies, 9 (43%) on Abiraterone plus Prednisone (AA+P) and 12 (57%) on Enzalutamide (E). Samples were collected and shipped to Epic Sciences, where cells were stained and CTC identified by fluorescent scanners and algorithmic analysis. CTCs, defined as classic (CK+CD45-w/intact DAPI nuclei and distinct), apopotic (CK+, CD45−, non-intact nuclei) and CK− (CK−, CD45-, intact and distinct) were identified. CTCs reported per mL of blood and were examined for AR, PTEN & ERG. CTC data were analyzed in context of PSA, Veridex CTC (reported per 7.5mL of blood), and clinical history.

Row | Compound | patients with high AR who responded | patients with low AR who had a PSA decline and stable radiographic disease
1 | CNC(=O)c1ccc(N2C(=S)N(c3ccc(C#N)c(C(F)(F)F)c3)C(=O)C2(C)C)cc1F [Enzalutamide] | 0% | 53%
2 | Abiraterone plus Prednisone | 0% | 53%
